Test results reported in article PMC4900596 (PLoS ONE, 2016).
Converted amounts (≈) assume the structure as drawn. Where two headings read alike, the source gives them in different places.

Columns and labels:
[1] = test system: human peripheral blood mononuclear cells (PBMCs); assay: Measurement of cell morphology: size (FSC-A) and granularity (SSC-A) by flow cytometry; format: cell-based; conditions: for concentration from which changes in PBMCs granularity (SSC-A) occurred / concentration causing statistically significant changes in FSC-A parameter: 24 h incubation; for activity at 10 µM / activity at 50 µM / activity at 100 µM / activity at 250 µM / activity at 500 µM / activity at 5000 µM: Homo sapiens, PBMC, 4 h; for activity at 10 µM: 0.01 mM; for activity at 50 µM: 0.05 mM; for activity at 100 µM: 0.1 mM; for activity at 250 µM: 0.25 mM; for activity at 500 µM: 0.5 mM; for activity at 5000 µM: 5.0 mM; for increase in FSC-A parameter / increase in SSC-A parameter: strongest change, concentration and time not given
Experimental: (§1) PBMCs were isolated from leucocyte-buffy coat collected from blood obtained in Blood Bank in Lodz, Poland. […] The testing was approved by the Bioethics Committee of the University of Lodz No. KBBN-UŁ/I/3/2013. PBMCs were diluted with PBS (1:4) and isolated using LSM (1.077 g/cm^3) by centrifugation at 600 g for 30 min at 20°C. PBMCs were collected, suspended in erythrocyte lysis buffer (150 mM NH4Cl, 10 mM NaHCO3, 1 mM EDTA, pH 7.4) and incubated for 5 min at 20°C. Then, PBS was added immediately, and the cells were centrifuged at 200 g for 15 min at 20°C. The supernatant was decanted, and the cells were washed twice with RPMI with L-glutamine and 10% fetal bovine serum (FBS) at 200 g for 15 min. The cells were resuspended in RPMI medium with L-glutamine, 10% FBS and penicylin-streptomycin (0.5%) and counted in haemocytometer. […] The viability of the cells was over 95%.
The cells were then analyzed using a flow cytometry (LSR II; Becton-Dickinson). FMC gate on PBMCs has been established for data acquisition, and cell size and granularity were evaluated with simultaneous separate detection of low-angle (FSC-A) and right-angle (SSC-A) light scattering. […] The light scattered near the forward direction (low angle) is expected to be proportional to particle size (volume), whereas scattering at the right angle depends on cell granularity (internal properties of the scattered particles).

[2] = test system: human peripheral blood mononuclear cells (PBMCs); assay: Determination of the level of adenosine-5'-triphosphate (ATP), luciferase bioluminescence; format: cell-based; conditions: for concentration from which a decrease in ATP level was observed / ATP level decreased by up to: 24 h; for concentration from which a decrease in ATP level was observed: significant vs control; for IC50: PBMC, human PBMCs, 24 h incubation, unit inferred, read-out: IC50 for changes in ATP level; for ATP level decreased by up to: 10 mM, control = 100%
Experimental: as §1
The level of ATP in the cells was determined by bioluminescence measurement at 560 nm using recombinant luciferase and its substrate, D-luciferin. The high sensitivity of method enables detection of 0.1 pM ATP. The reaction proceeds in two stages. In the first step, as a result of the reaction of ATP with luciferin, a complex of adenosine with luciferin is formed with simultaneous releasing of phosphate group. Secondly the complex reacts with oxygen resulting in a formation of oxyluciferin and adenosine monophosphate (AMP). Oxyluciferin returning from its excited state to the base state emits luminescence. The reaction requires the presence of magnesium ions.

[3] = test system: human peripheral blood mononuclear cells (PBMCs); assay: Cell viability (necrotic changes), calcein-AM/propidium iodide staining, flow cytometry; format: cell-based; conditions: for concentration from which a decrease in cell viability was noted: significant vs control (P < 0.05); for IC50: PBMC, human PBMCs, 24 h incubation, unit mM printed in b27 only
Experimental: as §1
The calcein-AM/propidum iodide (PI) viability test is commonly used in toxicity assays to detect cell membrane integrity and to quantify the number of viable and necrotic cells. The calcein-AM is hydrolyzed to calcein, which has a negative charge and penetrates living cells, staining them green. PI is one of the most widely used fluorescent markers for staining of necrotic cells. This compound penetrates the cells, in which membrane was damaged, and binds to DNA. This dye has two positive charges, which prevent it from entering intact cells. […] After the incubation, the samples were centrifuged at 300 g for 5 min at 4°C, the supernatant was decanted, and the cells were supplemented with RPMI with L-glutamine and 10% FBS. The samples were treated with calcein-AM and PI in the final concentrations of 0.1 and 1 μM, respectively and incubated for 15 min at 37°C in total darkness. The analysis was performed by flow cytometry (Becton Dickinson, LSR II). FCM gate on PBMCs has been established for data acquisition, and the fluorescence was measured with excitation/emission maxima of 494/517 nm and 535/617 nm for calcein and PI, respectively. The data were recorded for a total of 10,000 events per sample.

[4] = test system: choriocarcinoma cell line; conditions: MTT test; cited from earlier work
[5] = test system: HUVEC cell line, human kidney cells 293, placenta JEG3 cells; conditions: MTT; cited from earlier work
PBMCs = conditions: cited from earlier work
[6] = read-out: FSC-A (percent of control)
[7] = read-out: SSC-A (percent of control)

Row | Compound | concentration from which changes in PBMCs granularity (SSC-A) occurred [1] [mM] | activity at 10 µM [1, 6] [%] | activity at 10 µM [1, 7] [%] | activity at 50 µM [1, 6] [%] | activity at 50 µM [1, 7] [%] | activity at 100 µM [1, 6] [%] | activity at 100 µM [1, 7] [%] | activity at 250 µM [1, 6] [%] | activity at 250 µM [1, 7] [%] | activity at 500 µM [1, 6] [%] | activity at 500 µM [1, 7] [%] | activity at 5000 µM [1, 6] [%] | activity at 5000 µM [1, 7] [%] | concentration from which a decrease in ATP level was observed [2] [mM] | IC50 [2] [mM] | concentration from which a decrease in cell viability was noted ([3]; 24 h) [mM] | IC50 [3] [mM] | concentration causing statistically significant changes in FSC-A parameter [1] [mM] | increase in FSC-A parameter [1] [%] | increase in SSC-A parameter [1] [%] | further results
1 | NCP(=O)(O)O [AMPA, aminomethylphosphonic acid] | ≥ 5 | 101 ± 4.61 | 101 ± 3.75 | 101 ± 4.45 | 100 ± 3.47 | 101 ± 5.04 | 101 ± 2.26 | 101 ± 3.96 | 101 ± 5.74 | 102 ± 3.93 | 101 ± 5.35 | 99.6 ± 5.18 | 102 ± 4.76 | ≥ 5 | > 10 | ≥ 0.5 | > 10 |  |  |  | 
2 | O=P(O)(O)CNCP(=O)(O)O [Bis-(phosphonomethyl)amine, bis-(phosphonomethyl)amine] | ≥ 7.5 | 101 ± 2.38 | 98.4 ± 2.94 | 99.7 ± 2.54 | 100 ± 2.55 | 99.6 ± 2.04 | 100 ± 3.68 | 100 ± 2.68 | 100 ± 2 | 101 ± 3.34 | 101 ± 1.12 | 100 ± 3.88 | 103 ± 3.17 | ≥ 0.5 | 5.3 | ≥ 7.5 | 8.7 | ≥ 7.5 | 9 | 92 | ATP level decreased by up to [2]: 3.4%; PBMCs viability decreased by up to ([3]; 10 mM, 24 h, control = 100%): 37.2%
3 | O=C(O)CNCP(=O)(O)O [Glyphosate, N-phosphonomethylglycine, reference compound] | ≥ 0.5 | 102 ± 3.55 | 99.2 ± 4.71 | 102 ± 2.94 | 99.7 ± 7.75 | 102 ± 2.38 | 101 ± 9.59 | 102 ± 4.69 | 101 ± 8.1 | 102 ± 3.89 | 102 ± 5.94 | 101 ± 3 | 104 ± 7.27 | ≥ 5 | 9.6 |  | > 10 |  |  |  | EC50 [4]: 16 mM; concentration significantly affecting cell viability [5]: 100 µM; decrease in cell viability ([3]; 10 mM, 24 h, control = 100%): 2.7%; IC50 (cytotoxic effects) (PBMCs): 56.4 mg/L (≈ 334 µM)
4 | O=C(O)CN(CC(=O)O)CP(=O)(O)O [PMIDA, N-(phosphonomethyl)iminodiacetic acid] | 10 | 100 ± 2.09 | 97.5 ± 4.97 | 100 ± 2.21 | 98.1 ± 5.81 | 100 ± 3.36 | 99.2 ± 5.42 | 100 ± 2.65 | 99.3 ± 4.63 | 100 ± 2.65 | 99.8 ± 6.3 | 101 ± 4.59 | 105 ± 5.12 | ≥ 5 | 6.1 | ≥ 5 | 7.9 | 10 | 13 | 150 | ATP level decreased by up to [2]: 2.1%; PBMCs viability decreased by up to ([3]; 10 mM, 24 h, control = 100%): 3.4%
5 | O=P(O)(O)CO [Hydroxy-methylphosphonic acid, hydroxymethylphosphonic acid] | ≥ 5 | 100 ± 2 | 96.8 ± 4.77 | 100 ± 1.84 | 97.6 ± 4.71 | 100 ± 1.91 | 99.4 ± 1.17 | 101 ± 3.68 | 100 ± 3.33 | 100 ± 2.4 | 101 ± 2.05 | 100 ± 2.94 | 102 ± 2.14 | ≥ 5 | > 10 | ≥ 7.5 | > 10 |  |  |  | 
6 | CN(CC(=O)O)CP(=O)(O)O [N-methylglyphosate] | ≥ 5 | 102 ± 3.97 | 101 ± 4.68 | 102 ± 2.66 | 101 ± 4.81 | 103 ± 3.27 | 102 ± 3.57 | 101 ± 5.72 | 102 ± 4.73 | 101 ± 4.66 | 102 ± 8.82 | 100 ± 4.82 | 102 ± 7.27 | ≥ 0.5 | > 10 | ≥ 7.5 | > 10 |  |  |  | 
